From patent publication US8895733B2 (Novartis AG, priority 2010, dated 2014)

Legend:
Assay type in all cases: cell-based
Nav1.5 = biological target: T1, Nav1.5 (Homo sapiens, UniProt Q14524); assay: Inhibition of Nav1.5 as measured using manual patch clamp
T1 construct: expressed in transfected cells
Description: (§1) Patch-clamp electrophysiology is considered the gold standard technique for investigation of ion channel function and pharmacology. Using this method, sodium channel currents can be measured in cells, which stably (or transiently) express the sodium channel subtype of interest. Application of compounds during such experiments provides a functional measure of the activity and potency of compounds affecting the ion channel of interest.
(§2) Electrophysiological studies can also be performed using the whole cell configuration of the standard manual patch clamp technique as described in the literature (e.g. Pflugers Arch., 1981, 391(2), 85-100). In this assay, cells that express the voltage-gated sodium channel protein of interest are exposed to the drugs by conventional microperfusion systems, or by a home-built perfusion system. A suitable voltage stimulus protocol is used to activate the voltage-gated sodium channels.
(§3) A suitable voltage stimulus protocol is used to activate voltage-gated sodium channel proteins of interest. A typical stimulus protocol may consist of sweeps of sequential voltage pulses starting from a holding potential (i.e. −65 mV), to a more positive and depolarising test pulse potential (i.e. −10 mV) and finally to a more negative and hyperpolarising potential (i.e. −100 mV). According to the biophysics of the voltage-gated ion channel of interest and interest in channel configuration the voltages and durations of the pulses as well as the overall frequency of sweeps applied might vary. Accordingly, a stimulus protocol was designed to assess compounds due to their potential to block NaV1.7 channels primarily in inactivated state. Selectivity over other voltage-gated sodium channel members was assessed by protocols that reflect the native function of the channels (i.e. heart rate or firing of neurons).
(§4) Electrophysiological studies can also be performed using the whole cell configuration of the standard manual patch clamp technique as described in the literature (e.g. Pflugers Arch., 1981, 391(2), 85-100). In this assay, cells that express the human voltage-gated sodium channel protein of interest are exposed to the drugs by conventional microperfusion systems, or by a home-built perfusion system. A suitable voltage stimulus protocol is used to activate the voltage-gated sodium channels. A suitable voltage stimulus protocol may consist of sequential voltage pulses from a holding potential, each first hyperpolarizing the cell, then depolarizing the channels for a brief period. A particularly suitable holding potential may be a voltage allowing a fraction of channels to remain in an inactivated state, like −60 mV. A suitable hyperpolarizing voltage and duration may be −120 mV for 100 ms, and depolarization voltage and duration may be −20 mV for 25 ms, and a suitable frequency of pulses may be 0.1 Hz, but may also have other parameters. Accordingly, a stimulus protocol was designed to assess compounds due to their potential to block NaV1.7 channels primarily in inactivated state. Selectivity over other voltage-gated sodium channel members was assessed by protocols that reflect the native function of the channels (i.e. heart rate or firing of neurons).
Inhibition of Nav1.5 by Compounds of formula (I) as measured using manual patch clamp

Nav 1.7 [1] = biological target: T2, Nav 1.7 (Homo sapiens, UniProt Q15858); assay: Whole-cell voltage clamp electrophysiology, manual patch clamp (marker b in Table of Examples); details: read-out: Nav 1.7 activity
T2 construct: expressed in transfected cells
Description: (§5) a.IonWork Quattro data, b=Manual patch clamp data, c=Automated patch clamp data M=Method
(§6) Whole-Cell Voltage Clamp Electrophysiology Assay
as §1, §2, §3, §4

Nav 1.7 [2] = biological target: T2, Nav 1.7; assay: Whole-cell voltage clamp electrophysiology, IonWorks Quattro (marker a in Table of Examples); details: marker a: IonWork Quattro data; read-out: Nav 1.7 activity
Description: as §5, §6, §1
Electrophysiological studies can be performed using automated or manual patch-clamp techniques. Automated patch-clamp instruments suitable for this work include the Ion Works HT (MDS), Ion Works Quattro (MDS), PatchLiner (Nanion technologies), Port-A-Patch (Nanion technologies), QPatch (Sophion) or any other suitable platform.
For recording in automated patch-clamp instruments, cells expressing the voltage-gated sodium channel subtype of interest are dispensed in appropriate chips (plates with more than one recording chambers each containing one or more apertures to generate whole-cell patches), as provided by the manufacturer. Typically, the whole-cell perforated patch configuration is used for probing the pharmacology of compounds in automated patch-clamp electrophysiology on sodium channels. Extracellular and intracellular buffers for such experiments are composed according to the literature, or according to the instructions provided by the manufacturer of the instruments. Test solutions, which contain the compounds to be tested, are applied to the cells expressing the sodium channel of interest by a pipetting system, typically integrated into the robots.
as §3

Nav 1.7 [3] = biological target: T2, Nav 1.7; assay: Whole-cell voltage clamp electrophysiology, automated patch clamp (marker c in Table of Examples); details: marker c: Automated patch clamp data; read-out: Nav 1.7 activity
Procedure, shortened: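 A voltage protocol weighted toward inactivated-state block was used to test compounds on stably expressing cells, with pulses from −65 mV holding to −10 mV test and −100 mV. Currents came from whole-cell automated patch-clamp recordings, either IonWorks Quattro or other automated instruments, usually in perforated-patch mode.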

[4] = marker b: Manual patch clamp data
[5] = marker b = Manual patch clamp data

T2 sequence (Q15858 whole entry): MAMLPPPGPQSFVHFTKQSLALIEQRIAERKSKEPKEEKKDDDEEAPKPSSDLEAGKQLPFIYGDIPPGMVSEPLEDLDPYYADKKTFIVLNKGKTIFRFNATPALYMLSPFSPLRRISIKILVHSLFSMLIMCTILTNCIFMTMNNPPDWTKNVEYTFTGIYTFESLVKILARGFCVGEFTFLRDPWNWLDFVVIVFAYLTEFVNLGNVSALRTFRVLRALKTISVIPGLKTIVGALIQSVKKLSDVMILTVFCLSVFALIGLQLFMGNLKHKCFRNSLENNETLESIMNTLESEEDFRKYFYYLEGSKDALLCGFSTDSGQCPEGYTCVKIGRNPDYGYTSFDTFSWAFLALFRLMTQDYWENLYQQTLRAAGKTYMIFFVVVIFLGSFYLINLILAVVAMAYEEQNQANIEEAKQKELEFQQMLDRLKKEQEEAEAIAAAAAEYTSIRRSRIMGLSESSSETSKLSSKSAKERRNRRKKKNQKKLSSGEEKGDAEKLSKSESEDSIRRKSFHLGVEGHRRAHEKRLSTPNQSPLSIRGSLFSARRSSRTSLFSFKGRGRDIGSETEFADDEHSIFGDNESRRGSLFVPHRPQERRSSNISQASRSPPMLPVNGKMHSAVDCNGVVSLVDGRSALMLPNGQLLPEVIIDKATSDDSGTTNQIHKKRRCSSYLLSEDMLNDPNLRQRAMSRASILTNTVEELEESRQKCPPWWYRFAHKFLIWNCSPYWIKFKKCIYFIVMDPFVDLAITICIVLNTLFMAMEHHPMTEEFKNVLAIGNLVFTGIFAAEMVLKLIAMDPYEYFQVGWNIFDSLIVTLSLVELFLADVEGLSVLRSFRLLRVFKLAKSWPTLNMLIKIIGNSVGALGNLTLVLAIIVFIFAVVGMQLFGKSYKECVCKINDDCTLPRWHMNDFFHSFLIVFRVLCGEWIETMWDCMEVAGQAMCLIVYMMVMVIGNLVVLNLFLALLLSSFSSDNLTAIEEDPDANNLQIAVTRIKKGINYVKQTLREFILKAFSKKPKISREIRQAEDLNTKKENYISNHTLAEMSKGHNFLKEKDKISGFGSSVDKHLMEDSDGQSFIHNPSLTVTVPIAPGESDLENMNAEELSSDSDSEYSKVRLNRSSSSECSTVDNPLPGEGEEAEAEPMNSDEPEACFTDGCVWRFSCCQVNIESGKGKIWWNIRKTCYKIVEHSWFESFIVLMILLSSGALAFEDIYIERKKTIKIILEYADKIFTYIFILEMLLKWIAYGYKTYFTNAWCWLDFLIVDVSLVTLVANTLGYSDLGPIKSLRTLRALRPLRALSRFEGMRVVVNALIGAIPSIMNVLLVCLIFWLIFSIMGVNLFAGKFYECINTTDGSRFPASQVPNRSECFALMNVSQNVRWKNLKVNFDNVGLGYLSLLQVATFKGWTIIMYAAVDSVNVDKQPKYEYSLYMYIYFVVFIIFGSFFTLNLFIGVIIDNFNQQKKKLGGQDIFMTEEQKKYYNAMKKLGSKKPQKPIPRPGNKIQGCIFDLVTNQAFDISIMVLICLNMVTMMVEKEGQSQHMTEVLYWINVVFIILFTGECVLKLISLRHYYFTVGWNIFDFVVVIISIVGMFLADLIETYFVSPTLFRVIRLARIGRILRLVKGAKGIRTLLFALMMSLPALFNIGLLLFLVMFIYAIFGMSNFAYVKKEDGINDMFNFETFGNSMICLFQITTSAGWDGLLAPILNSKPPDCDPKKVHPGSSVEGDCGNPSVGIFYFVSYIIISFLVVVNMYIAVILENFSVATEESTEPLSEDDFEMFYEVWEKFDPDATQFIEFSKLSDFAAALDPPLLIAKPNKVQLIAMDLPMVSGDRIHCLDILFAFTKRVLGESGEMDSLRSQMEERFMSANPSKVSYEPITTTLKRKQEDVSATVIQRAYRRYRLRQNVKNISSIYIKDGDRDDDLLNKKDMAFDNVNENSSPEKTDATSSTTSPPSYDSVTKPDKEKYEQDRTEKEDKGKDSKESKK
T1 sequence (Q14524 whole entry): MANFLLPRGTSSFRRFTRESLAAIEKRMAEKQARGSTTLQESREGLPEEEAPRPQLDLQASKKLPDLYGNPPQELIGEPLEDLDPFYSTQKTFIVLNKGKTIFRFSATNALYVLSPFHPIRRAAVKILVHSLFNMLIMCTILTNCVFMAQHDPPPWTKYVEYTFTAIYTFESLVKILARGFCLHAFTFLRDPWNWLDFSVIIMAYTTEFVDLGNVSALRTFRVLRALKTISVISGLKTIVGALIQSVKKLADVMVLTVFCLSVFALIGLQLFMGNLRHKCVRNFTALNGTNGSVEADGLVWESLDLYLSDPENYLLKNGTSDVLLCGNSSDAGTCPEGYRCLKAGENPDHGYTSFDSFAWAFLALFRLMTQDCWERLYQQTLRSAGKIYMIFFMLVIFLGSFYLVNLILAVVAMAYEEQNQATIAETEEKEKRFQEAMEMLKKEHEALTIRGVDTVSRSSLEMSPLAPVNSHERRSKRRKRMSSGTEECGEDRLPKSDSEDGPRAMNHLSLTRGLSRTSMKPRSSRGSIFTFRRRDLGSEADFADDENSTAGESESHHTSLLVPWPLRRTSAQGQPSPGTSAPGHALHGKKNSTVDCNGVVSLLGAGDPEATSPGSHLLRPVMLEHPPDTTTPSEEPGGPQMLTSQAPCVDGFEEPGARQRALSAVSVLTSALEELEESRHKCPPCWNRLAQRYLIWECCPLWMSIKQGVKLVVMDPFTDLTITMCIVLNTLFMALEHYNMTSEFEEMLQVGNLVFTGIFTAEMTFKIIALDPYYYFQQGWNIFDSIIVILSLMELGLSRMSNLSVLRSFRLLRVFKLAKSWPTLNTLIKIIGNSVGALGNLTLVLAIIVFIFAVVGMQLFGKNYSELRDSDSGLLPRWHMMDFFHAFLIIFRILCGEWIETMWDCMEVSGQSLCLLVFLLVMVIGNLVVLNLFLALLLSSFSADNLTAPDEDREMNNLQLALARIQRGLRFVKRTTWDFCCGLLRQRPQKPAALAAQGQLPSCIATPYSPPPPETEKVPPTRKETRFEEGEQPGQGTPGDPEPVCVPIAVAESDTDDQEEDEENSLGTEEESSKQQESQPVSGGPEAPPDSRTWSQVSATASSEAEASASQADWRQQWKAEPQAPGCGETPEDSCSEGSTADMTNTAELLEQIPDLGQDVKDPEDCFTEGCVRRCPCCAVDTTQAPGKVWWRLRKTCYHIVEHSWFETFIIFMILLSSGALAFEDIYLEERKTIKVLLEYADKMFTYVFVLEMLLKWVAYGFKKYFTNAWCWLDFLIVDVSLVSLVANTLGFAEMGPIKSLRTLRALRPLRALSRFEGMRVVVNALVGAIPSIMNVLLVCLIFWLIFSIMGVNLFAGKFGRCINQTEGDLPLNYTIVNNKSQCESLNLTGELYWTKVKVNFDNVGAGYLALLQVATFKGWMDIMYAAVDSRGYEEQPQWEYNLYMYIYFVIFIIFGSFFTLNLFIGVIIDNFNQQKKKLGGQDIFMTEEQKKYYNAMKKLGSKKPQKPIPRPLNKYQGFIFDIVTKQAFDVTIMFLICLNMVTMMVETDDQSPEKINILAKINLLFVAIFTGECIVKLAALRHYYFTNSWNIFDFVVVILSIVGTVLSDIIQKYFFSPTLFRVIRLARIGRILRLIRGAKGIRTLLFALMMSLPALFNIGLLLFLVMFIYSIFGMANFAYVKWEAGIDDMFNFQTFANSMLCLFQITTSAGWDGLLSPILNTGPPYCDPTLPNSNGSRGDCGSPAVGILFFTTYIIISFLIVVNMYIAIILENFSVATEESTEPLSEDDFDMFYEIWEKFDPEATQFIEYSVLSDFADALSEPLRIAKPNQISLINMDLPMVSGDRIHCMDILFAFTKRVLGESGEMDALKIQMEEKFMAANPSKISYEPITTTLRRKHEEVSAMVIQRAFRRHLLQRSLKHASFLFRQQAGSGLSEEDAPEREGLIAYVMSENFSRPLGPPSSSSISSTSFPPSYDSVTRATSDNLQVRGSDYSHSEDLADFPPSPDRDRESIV

Row | SMILES | IC50 (Nav 1.7 [1]; [4]) [nM] | IC50 (Nav1.5) [nM] | other results
1 | CN(c1nc(N)nc(-c2noc(-c3ccco3)n2)n1)c1cccc(F)c1F [Example 34, 6-(5-Furan-2-yl-[1,2,4]oxadiazol-3-yl)-N-methyl-N-(2,3-difluorophenyl)-[1,3,5]triazine-2,4-diamine] | – | – | IC50 (Nav 1.7 [2]): < 500 nM
2 | CN(c1cccc(C(F)(F)F)c1)c1nc(N)nc(-c2noc(-c3ccco3)n2)n1 [Example 33] | – | – | IC50 (Nav 1.7 [2]): < 1000 nM
3 | COc1cccc(-c2nc(-c3nc(N)nc(N(C)c4ccccc4)n3)no2)c1 [Example 24, 6-[5-(3-Methoxy-phenyl)-[1,2,4]oxadiazol-3-yl]-N-methyl-N-phenyl-[1,3,5]triazine-2,4-diamine] | – | – | IC50 (Nav 1.7 [2]): < 500 nM
4 | COc1cccnc1-c1nc(-c2nc(N)nc(N(C)c3ccccc3)n2)no1 [Example 132, 6-[5-(3-Methoxy-2-pyridyl)-[1,2,4]oxadiazol-3-yl]-N-methyl-N-phenyl-[1,3,5]triazine-2,4-diamine] | – | 2600 | IC50 (Nav 1.7 [3]): 397 nM
5 | CN(Cc1ccccc1)c1nc(N)nc(-c2noc(-c3ccco3)n2)n1 [Example 20, N-Benzyl-6-(5-furan-2-yl-[1,2,4]oxadiazol-3-yl)-N-methyl-[1,3,5]triazine-2,4-diamine] | – | – | IC50 (Nav 1.7 [2]): < 3000 nM
6 | CCN(c1ccccc1)c1nc(N)nc(-c2noc(-c3ccccc3OC)n2)n1 [Example 95, N-Ethyl-6-[5-(2-methoxy-phenyl)-[1,2,4]oxadiazol-3-yl]-N-phenyl-[1,3,5]triazine-2,4-diamine] | 46 | 3700 | –
7 | COc1ccc(-c2nc(-c3nc(N)nc(N(C)c4ccccc4)n3)no2)nc1 [Example 118, 6-[5-(5-Methoxy-pyridin-2-yl)-[1,2,4]oxadiazol-3-yl]-N-methyl-N-phenyl-[1,3,5]triazine-2,4-diamine] | – | 3340 | IC50 (Nav 1.7 [3]): 294 nM
8 | COc1ccccc1-c1nc(-c2nc(N)nc(N(C)c3cccc(Cl)c3)n2)no1 [Example 100, N-(3-Chloro-phenyl)-6-[5-(2-methoxy-phenyl)-[1,2,4]oxadiazol-3-yl]-N-methyl-[1,3,5]triazine-2,4-diamine] | – | 126 | IC50 (Nav 1.7 [3]): 118 nM
9 | Nc1nc(-c2noc(-c3ccco3)n2)nc(N(CC(F)(F)F)c2ccccc2)n1 [Example 68, 6-(5-Furan-2-yl-[1,2,4]oxadiazol-3-yl)-N-phenyl-N-(2,2,2-trifluoro-ethyl)-[1,3,5]triazine-2,4-diamine] | – | > 10000 | IC50 (Nav 1.7 [3]): 225 nM
10 | COCCN(c1ccccc1)c1nc(N)nc(-c2noc(-c3ccc(OCC(F)(F)F)nc3)n2)n1 [Example 156, 2-N-(2-Methoxyethyl)-2-N-phenyl-6-{5-[6-(2,2,2-trifluoroethoxy)pyridin-3-yl]-1,2,4-oxadiazol-3-yl}-1,3,5-triazine-2,4-diamine] | 65 | – | –
11 | Nc1nc(Nc2ccccc2)nc(-c2noc(-c3ccc(COCC(F)(F)F)nc3)n2)n1 [Example 303, 2-N-phenyl-6-(5-{6-[(2,2,2-trifluoroethoxy)methyl]pyridin-3-yl}-1,2,4-oxadiazol-3-yl)-1,3,5-triazine-2,4-diamine] | – | – | IC50 (Nav 1.7 [1]; [5]): 24 nM
12 | CN(c1ccccc1)c1nc(N)nc(-c2noc(-c3ccccn3)n2)n1 [Example 9, N-Methyl-N-phenyl-6-(5-pyridin-2-yl-[1,2,4]oxadiazol-3-yl)-[1,3,5]triazine-2,4-diamine] | 769 | – | –
13 | COC1CCN(c2nc(-c3nc(N)nc(Nc4ccccc4)n3)no2)CC1 [Example 238, 6-[5-(4-methoxypiperidin-1-yl)-1,2,4-oxadiazol-3-yl]-2-N-phenyl-1,3,5-triazine-2,4-diamine] | – | – | IC50 (Nav 1.7 [1]; [5]): 761 nM
14 | CN(c1ccccc1)c1nc(N)nc(-c2noc(-c3ccc(OC4CCCC4)nc3)n2)n1 [Example 13, 6-[5-(6-Cyclopentoxy-pyridin-3-yl)-[1,2,4]oxadiazol-3-yl]-N-methyl-N-phenyl-[1,3,5]triazine-2,4-diamine] | 4 | – | –
15 | CN(c1ccccc1)c1nc(N)nc(-c2noc(C(=O)N3CCC(OCC(F)(F)F)CC3)n2)n1 [Example 262, 2-N-methyl-2-N-phenyl-6-(5-{[4-(2,2,2-trifluoroethoxy)piperidin-1-yl]carbonyl}-1,2,4-oxadiazol-3-yl)-1,3,5-triazine-2,4-diamine] | – | – | IC50 (Nav 1.7 [1]; [5]): 400 nM
16 | CN(c1cccc(F)c1)c1nc(N)nc(-c2noc(-c3ccccc3Cl)n2)n1 [Example 86, 6-[5-(2-Chloro-phenyl)-[1,2,4]oxadiazol-3-yl]-N-(3-fluoro-phenyl)-N-methyl-[1,3,5]triazine-2,4-diamine] | 126 | 300 | –
17 | COCCN(c1ccccc1)c1nc(N)nc(-c2noc(-c3ccco3)n2)n1 [Example 119, 6-(5-Furan-2-yl-[1,2,4]oxadiazol-3-yl)-N-(2-methoxy-ethyl)-N-phenyl-[1,3,5]triazine-2,4-diamine] | 400 | – | –

Now from value to molecule, other results behind:

Row | IC50 (Nav 1.7 [1]; [4]) [nM] | SMILES | IC50 (Nav1.5) [nM] | other results
18 | 42 | CN(c1nc(N)nc(-c2noc(-c3ccco3)n2)n1)c1cc(Cl)ccc1F [Example 103, N-(5-Chloro-2-fluoro-phenyl)-6-(5-furan-2-yl-[1,2,4]oxadiazol-3-yl)-N-methyl-[1,3,5]triazine-2,4-diamine] | 215 | –
19 | 264 | CN(c1ccc(F)cc1)c1nc(N)nc(-c2noc(-c3ccco3)n2)n1 [Example 16, N-(4-Fluoro-phenyl)-6-(5-furan-2-yl-[1,2,4]oxadiazol-3-yl)-N-methyl-[1,3,5]triazine-2,4-diamine] | 1050 | –
20 | 212 | CN(c1ccccc1)c1nc(N)nc(-c2noc(-c3ccco3)n2)n1 [Example 1, 6-(5-Furan-2-yl-[1,2,4]oxadiazol-3-yl)-N-methyl-N-phenyl-[1,3,5]triazine-2,4-diamine] | 2430 | –
21 | 187 | CN(c1cccc(Cl)c1)c1nc(N)nc(-c2noc(-c3ccco3)n2)n1 [Example 7, 6-(5-Furan-2-yl-[1,2,4]oxadiazol-3-yl)-N-methyl-N-(3-chlorophenyl)-[1,3,5]triazine-2,4-diamine] | 847 | –
22 | 93 | CN(c1nc(N)nc(-c2noc(-c3ccco3)n2)n1)c1cc(F)ccc1F [Example 104, N-(2,5-Difluoro-phenyl)-6-(5-furan-2-yl-[1,2,4]oxadiazol-3-yl)-N-methyl-[1,3,5]triazine-2,4-diamine] | – | –
23 | 272 | Cc1cccc(N(C)c2nc(N)nc(-c3noc(-c4ccco4)n3)n2)c1 [Example 3, 6-(5-Furan-2-yl-[1,2,4]oxadiazol-3-yl)-N-methyl-N-(3-methylphenyl)-[1,3,5]triazine-2,4-diamine] | – | –
24 | 339 | CN(c1ccc(Cl)cc1)c1nc(N)nc(-c2noc(-c3ccco3)n2)n1 [Example 8, 6-(5-Furan-2-yl-[1,2,4]oxadiazol-3-yl)-N-methyl-N-(4-chlorophenyl)-[1,3,5]triazine-2,4-diamine] | – | –
25 | 249 | CCN(c1ccccc1)c1nc(N)nc(-c2noc(-c3ccco3)n2)n1 [Example 21, N-Ethyl-6-(5-furan-2-yl-[1,2,4]oxadiazol-3-yl)-N-phenyl-[1,3,5]triazine-2,4-diamine] | 2060 | –
26 | 59 | Cc1ccc(F)c(N(C)c2nc(N)nc(-c3noc(-c4ccco4)n3)n2)c1 [Example 105, N-(2-Fluoro-5-methyl-phenyl)-6-(5-furan-2-yl-[1,2,4]oxadiazol-3-yl)-N-methyl-[1,3,5]triazine-2,4-diamine] | – | –
